Patent US20120028358A1, “METHOD FOR INCREASING RETROVIRAL INFECTIVITY” (priority 2010, published 2012)

Experiments:
progesterone receptor = biological target: T1, progesterone receptor (Homo sapiens, UniProt P06401); conditions: cited from earlier work
T1 sequence (P06401 1-933): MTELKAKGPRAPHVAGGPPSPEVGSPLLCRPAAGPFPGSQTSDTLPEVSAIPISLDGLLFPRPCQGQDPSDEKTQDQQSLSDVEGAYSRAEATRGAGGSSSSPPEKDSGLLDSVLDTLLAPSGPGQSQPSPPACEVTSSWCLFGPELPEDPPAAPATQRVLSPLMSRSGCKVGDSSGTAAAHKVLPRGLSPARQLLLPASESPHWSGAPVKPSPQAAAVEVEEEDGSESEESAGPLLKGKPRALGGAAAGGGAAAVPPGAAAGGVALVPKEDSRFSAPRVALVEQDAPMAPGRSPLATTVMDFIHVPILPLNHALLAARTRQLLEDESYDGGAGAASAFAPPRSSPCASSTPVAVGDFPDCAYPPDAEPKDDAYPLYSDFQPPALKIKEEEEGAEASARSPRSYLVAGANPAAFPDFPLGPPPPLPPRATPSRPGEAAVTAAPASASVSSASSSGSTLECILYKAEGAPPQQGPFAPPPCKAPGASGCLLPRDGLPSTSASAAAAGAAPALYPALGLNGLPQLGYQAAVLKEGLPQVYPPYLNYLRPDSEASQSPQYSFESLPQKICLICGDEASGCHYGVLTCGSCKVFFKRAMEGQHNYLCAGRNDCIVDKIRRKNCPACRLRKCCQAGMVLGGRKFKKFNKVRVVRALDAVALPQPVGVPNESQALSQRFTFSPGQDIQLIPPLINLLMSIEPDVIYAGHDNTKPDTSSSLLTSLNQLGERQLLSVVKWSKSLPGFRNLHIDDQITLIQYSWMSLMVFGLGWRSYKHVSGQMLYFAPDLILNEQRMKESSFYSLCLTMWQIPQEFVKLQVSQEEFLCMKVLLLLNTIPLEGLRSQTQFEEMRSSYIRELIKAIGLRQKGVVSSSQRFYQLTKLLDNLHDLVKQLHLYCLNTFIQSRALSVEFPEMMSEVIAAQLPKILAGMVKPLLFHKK

rat PMVEC = test: Gamma-retroviral infection efficiency of PMVEC (percent fluorescent cells by FACS); format: cell-based; conditions: for Retroviral infectivity versus control: increasing concentrations, Org 34517 0.1-30 μmol/L
Protocol: Cell cultures: Phoenix Retroviral Expression System ecotropic and amphotropic packaging cells were purchased from Orbigen, Inc. (San Diego, Calif.). […] Rat pulmonary microvascular endothelial cells (PMVEC), were obtained from our cell culture core at the University of South Alabama (King J, et al. Structural and functional characteristics of lung macro and microvascular endothelial phenotypes. Microvascular Res. 2004, March, 67(2). 139-151). Human glioblastoma cells (U87MG), and human mammary carcinoma cells (T47D) were obtained from ATCC. All cells were cultured in DMEM, 10% FBS, 2 mmol L-Glutamine and used for experiments at passages 4-9. All cells were grown in humidified incubators at 37° C. in 5% CO2. Cells were harvested by 0.05% trypsin/0.53 mM EDTA digestion, washed, re-suspended in cultured medium and analyzed directly by FACScan in the University of South Alabama Flow Cytometry Core. For cell cycle analysis cellular DNA was stained with […] of propridium iodide for 20 minutes as described elsewhere (48) and then analyzed by FACScan.
Vectors and delivery systems: pBMN-GFP (Orbigen, Inc., San Diego, Calif.), a retroviral vector that expresses GFP driven by the MMLV's promoter in Phoenix and other cells was used. In some experiments Murine Stem Cell Virus (MSCV) expressing mCherry and the hybrid retroviral vector Friend Murine Embryonic-stem cell Virus (FMEV) [for Friend Mink Cell Focus-forming (FMCF)/Murine Embryonic Stem cell Virus (MESV)](31) expressing DsRed2 were used in addition to MMLV. Two lentiviral vectors pLemiR (Open Biosystems, Huntsville, Ala.) and pLVX-DsRed-Monomer-C1 (Clontech Laboratories, Inc., Mountain View, Calif.) harboring turboRFP and DsRed as reporters were also used for comparison to gamma-retroviruses. Packaging cells were transfected with retroviral vectors using FuGENE 6 reagent following the manufacturer's instructions. For virus propagation, packaging cells were cultured in growth medium for 12-18 hours. Virus was collected with cultured medium, filtered, supplemented with hexadimethrine bromide (polybrene) to a final concentration of 4 μg/ml and applied directly to target cells.
Gamma-retroviral backbones containing genes encoding fluorescent proteins as reporters were propagated in Phoenix ecotropic packaging cells. Viral-conditioned supernatant was collected and applied to target cells (rat pulmonary microvascular endothelial cells, PMVEC).

glucocorticoid receptor = biological target: T2, glucocorticoid receptor (Homo sapiens, UniProt P04150); conditions: cited from earlier work
T2 sequence (P04150 1-777): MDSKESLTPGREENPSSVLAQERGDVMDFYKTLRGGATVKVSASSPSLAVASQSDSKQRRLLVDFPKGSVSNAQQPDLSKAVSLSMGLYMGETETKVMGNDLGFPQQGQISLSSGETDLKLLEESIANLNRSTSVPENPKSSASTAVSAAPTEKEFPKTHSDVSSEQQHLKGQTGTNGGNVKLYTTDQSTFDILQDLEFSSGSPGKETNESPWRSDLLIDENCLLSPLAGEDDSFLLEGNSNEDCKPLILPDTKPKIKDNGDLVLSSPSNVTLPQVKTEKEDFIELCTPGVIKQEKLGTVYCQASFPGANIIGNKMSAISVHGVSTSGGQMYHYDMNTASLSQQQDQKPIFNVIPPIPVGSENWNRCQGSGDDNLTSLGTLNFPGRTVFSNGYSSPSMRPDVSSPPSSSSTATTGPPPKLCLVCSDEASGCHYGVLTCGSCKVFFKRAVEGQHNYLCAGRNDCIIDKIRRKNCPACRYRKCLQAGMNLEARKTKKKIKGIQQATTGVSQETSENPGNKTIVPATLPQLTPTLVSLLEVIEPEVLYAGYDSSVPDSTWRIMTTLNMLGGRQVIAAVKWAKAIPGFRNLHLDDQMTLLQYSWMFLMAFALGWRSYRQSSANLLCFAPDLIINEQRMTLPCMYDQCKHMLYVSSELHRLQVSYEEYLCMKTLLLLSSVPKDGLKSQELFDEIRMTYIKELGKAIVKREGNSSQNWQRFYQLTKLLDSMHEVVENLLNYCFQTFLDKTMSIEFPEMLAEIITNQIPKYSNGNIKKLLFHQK

[1] = tested on: rat pulmonary microvascular endothelial cells (PMVEC); test: Percent GFP-positive (infected) target cells after conditioned medium from Phoenix cells; format: cell-based; conditions: conditioned medium from Phoenix cells grown with dexamethasone, plateau at 10 nmol
Phoenix cells and PMVEC = test: Cell growth and survival of packaging and target cells

| Compound | IC50 (progesterone receptor) [nM] | Retroviral infectivity versus control (rat PMVEC) | Potency in increasing retroviral infectivity relative to mifepristone (rat PMVEC) | IC50 (glucocorticoid receptor) [nM] | Percentage of GFP-positive (infected) PMVEC [1] [%] | Cell growth (Phoenix cells and PMVEC; over 7 days, retrovirus producing or target cells (data not shown)) | Adverse effects on cell growth or survival (Phoenix cells and PMVEC; packaging or target cells) |
| --- | --- | --- | --- | --- | --- | --- | --- |
| C=C1OC(CC)=NC12CCC1C3CCC4=CC(=O)CCC4=C3C(c3ccc(C(C)=O)cc3)CC12C (centres unmarked) [7453-102, 11b-[4-(acetyl)phenyl)-4′,5′-dihydro-2′-ethyl-5′-methylenespiro[estra-4,9-dien-17b,4′-oxazole]-3-one] | 0.34 | no effect |  |  |  |  |  |
| CC#C[C@]1(O)CC[C@H]2[C@@H]3CCC4=CC(=O)CCC4=C3[C@@H](c3ccc4c(c3)OCO4)C[C@@]21C [Org 34517] |  | significantly increased | less potent than mifepristone | 17.9 |  |  |  |
| C[C@@H]1C[C@H]2[C@@H]3CCC4=CC(=O)C=C[C@]4(C)[C@@]3(F)[C@@H](O)C[C@]2(C)[C@@]1(O)C(=O)CO [dexamethasone, Dexamethasone] |  |  |  |  | 45 | no effect | did not cause any evident adverse effects |
